# In patent publication US9821077B2, “Diagnostic substances for optical imaging testing on the basis of nanoparticular formulations” (NANOPET PHARMA GMBH, priority 2007, dated 2017):
# “And” between values parts separate entries of the source, which are not always exact repeats. Identical values can stand only once.
# Experiments:
# [1] = Stability test, absorption as a function of time; assay type: physicochemical; details: purely aqueous formulation, 0.0005% ICG, room temperature, 7 days
# Protocol: For the stability test the absorption in the maximum of the various formulations was measured as a function of time. For this purpose, 0.0005% ICG solutions were prepared and stored at room temperature.
# For the stability test the absorption spectra of the various formulations were measured as a function of time.
# [2] = Absorption spectra, absorption maximum; assay type: physicochemical; details: dye in water
# Protocol: Absorption spectra in a wavelength range of 700 nm to 900 nm were recorded with a UVIKON 933 Spectrophotometer (company Kontron) in the various solvents. →ICG in water λmax=780 nm ICO micelles λmax=797 nm (FIG. 1A)
# Absorption spectra were recorded in a wavelength range of 600 nm to 900 nm with a DU®530 Beckman Spectralphotometer in the various solvents. →ICG in water λmax=779 nm ICG-Cithrol 10 MS micelles λmax=800 nm (FIG. 2A)
# Absorption spectra were recorded in a wavelength range of 600 nm to 900 nm with a DU®530 Beckman Spectralphotometer in the various solvents. →ICG in water λmax=779 nm ICG-Crodet S40 LD micelles λmax=800 nm (FIG. 3A)
# (§1) Absorption spectra were recorded in a wavelength range of 600 nm to 900 nm with a DU®530 Beckman Spectralphotometer in the various solvents. […]
# as §1
# Absorption spectra were recorded in a wavelength range of 600 nm to 900 nm with a DU®530 Beckman Spectralphotometer in the various solvents. →NW003.5 in water λmax (monomer)=788 nm NW003.5-Solutol® HS 15 micelles λmax=806 nm (FIG. 6B)
# Absorption spectra were recorded in a wavelength range of 600 nm to 900 nm with a DU®530 Beckman Spectra'photometer in the various solvents. →IR-783 in water λmax (Monomer)=775 nm IR-783-Solutol® HS 15 micelles λmax=797 nm (FIG. 7B)
# [3] = in DMSO, used as the standard; cited from earlier work
# [4] = test system: plasma protein; experiment: Plasma protein binding by wavelength shift in the absorption spectrum; assay type: in vitro ADME
# Description: For this purpose, spectra of 700 nm to 900 nm of ICG in water and in plasma were compared with spectra of ICG micelles in water and in plasma.
# [5] = Fluorescence measurements, quantum yield; assay type: physicochemical; details: in water; standard ICG in DMSO
# Protocol: Fluorescence measurements were carried out by means of a FluoroLog-2 Spectrofluorometer (350 W Xenon lamp) of the company Spex. For this purpose, emission spectra of 700 nm to 900 nm were recorded. The excitation wavelength corresponded to the respective maximum of the formulation in the absorption spectrum (ICG in water λmax=780 nm and ICG micelles λmax=795 nm). Due to the s & r modus of the software DM 3000, the different lamp intensities of the different excitation wavelengths could be taken into account in the evaluation.
# The quantum yield is calculated via the surface area below the emission curve. ICG in DMSO was used as the standard (Φ=0.13).
# (§2) Fluorescence measurements were carried out by means of a Spectrofluorometer FP-6500 of the company JASCO. For this purpose, emission spectra of 770 to 900 nm were recorded. […] The quantum yield is calculated via the surface area below the emission curve. […]
# as §2, §2
standardized absorption after storage [1],absorption maximum λmax [2],absorption maximum in plasma [4] [nm],fluorescence quantum yield Φ [5],SMILES,fluorescence quantum yield Φ of the standard [3]
below 10%,779 nm and 780 nm,805,0.02,"CC1(C)C(/C=C/C=C/C=C/C=C2\N(CCCCS(=O)(=O)O)c3ccc4ccccc4c3C2(C)C)=[N+](CCCCS(=O)(=O)[O-])c2ccc3ccccc3c21 [ICG, indocyanine green]",0.12 and 0.13
–,775 nm,–,–,CC1(C)C(=CC=C2CCCC(C=CC3=[N+](CCCCS(=O)(=O)[O-])c4ccccc4C3(C)C)=C2Cl)N(CCCCS(=O)(=O)[O-])c2ccccc21.[Na+] [IR-783],–
